Experimental data taken from ChEMBL document CHEMBL1201862, “PubChem BioAssay data set” (2004).
Activity calls are given as the source filed them.

Columns and labels:
Candida albicans [1] = experiment: growth inhibition of resistant C. albicans, dose response, CaCi-8 strain, fluconazole, dry powder, set 4 (AID 488950); type: functional, organism-based
Candida albicans [2] = experiment: fluconazole resistance reversal in C. albicans, dose response, CaCi-2 strain, Alamar Blue, dry powder, set 4 (AID 488943); type: functional, organism-based
Candida albicans [3] = experiment: growth inhibition of resistant C. albicans, dose response, CaCi-8, fluconazole, Alamar Blue, dry powder (AID 488807); type: functional, organism-based
Candida albicans [4] = experiment: single-agent growth inhibition of C. albicans, dose response, counter-screen for antifungal drug resistance project, C. albicans CaCi-2, dry powder (AID 488802); type: functional, organism-based
[5] = target: G-protein coupled receptor 55 (Homo sapiens, UniProt Q9Y2T6); experiment: GPR55 agonists via beta-arrestin recruitment, primary screen, imaging, U2OS cells, beta-arrestin-GFP redistribution (AID 1961); type: functional
G-protein coupled receptor 55, sequence (Q9Y2T6 whole entry, the tested form may be a part): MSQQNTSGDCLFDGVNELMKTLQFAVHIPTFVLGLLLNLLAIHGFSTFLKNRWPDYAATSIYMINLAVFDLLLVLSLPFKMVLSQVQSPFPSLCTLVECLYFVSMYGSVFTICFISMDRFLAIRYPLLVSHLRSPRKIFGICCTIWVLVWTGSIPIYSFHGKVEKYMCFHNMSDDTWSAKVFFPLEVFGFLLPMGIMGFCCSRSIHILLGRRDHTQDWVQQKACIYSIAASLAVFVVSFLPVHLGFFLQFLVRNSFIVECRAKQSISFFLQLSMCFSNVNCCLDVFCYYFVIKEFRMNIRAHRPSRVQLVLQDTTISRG

Hexokinase-1 = Hexokinase-1 (Homo sapiens, UniProt P19367); experiment: SAR analysis of small molecule inhibitors of hexokinase domain containing I (HKDC1) in the hexokinase 1 selectivity assay. [Related pubchem assays (depositor defined):AID493160, AID493190]; type: functional
Hexokinase HKDC1 = target: T1, Hexokinase HKDC1 (Homo sapiens, UniProt Q2TB90); experiment: SAR analysis of small molecule inhibitors of hexokinase domain containing I (HKDC1). [Related pubchem assays (depositor defined):AID493160, AID493190]; type: functional
T1 sequence (Q2TB90 whole entry): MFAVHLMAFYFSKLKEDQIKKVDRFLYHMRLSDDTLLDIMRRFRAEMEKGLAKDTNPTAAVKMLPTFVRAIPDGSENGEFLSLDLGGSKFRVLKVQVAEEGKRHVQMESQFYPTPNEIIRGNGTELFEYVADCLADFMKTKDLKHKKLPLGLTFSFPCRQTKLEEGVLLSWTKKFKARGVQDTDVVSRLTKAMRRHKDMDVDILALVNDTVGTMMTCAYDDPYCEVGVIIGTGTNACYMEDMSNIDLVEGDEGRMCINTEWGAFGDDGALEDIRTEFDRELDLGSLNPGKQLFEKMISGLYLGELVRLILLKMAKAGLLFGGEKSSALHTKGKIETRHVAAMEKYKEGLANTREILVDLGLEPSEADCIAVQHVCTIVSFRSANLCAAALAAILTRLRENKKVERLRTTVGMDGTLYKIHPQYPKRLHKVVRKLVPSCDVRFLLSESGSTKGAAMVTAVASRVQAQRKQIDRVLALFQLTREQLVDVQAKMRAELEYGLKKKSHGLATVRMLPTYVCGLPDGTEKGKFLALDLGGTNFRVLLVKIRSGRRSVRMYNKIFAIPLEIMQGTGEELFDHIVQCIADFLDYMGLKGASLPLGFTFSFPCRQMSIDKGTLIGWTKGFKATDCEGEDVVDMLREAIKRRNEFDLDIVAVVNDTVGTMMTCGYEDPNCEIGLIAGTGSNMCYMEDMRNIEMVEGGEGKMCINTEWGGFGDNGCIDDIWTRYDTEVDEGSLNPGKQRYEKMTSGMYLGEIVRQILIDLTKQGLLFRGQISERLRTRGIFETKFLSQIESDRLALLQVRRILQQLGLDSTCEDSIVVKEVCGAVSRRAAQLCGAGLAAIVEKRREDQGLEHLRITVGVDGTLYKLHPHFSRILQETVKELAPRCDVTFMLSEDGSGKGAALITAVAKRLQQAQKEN

[6] = target: Beta-2 adrenergic receptor (Homo sapiens, UniProt P07550); experiment: beta2AR agonists driving receptor internalization, dose response, cell-based, FAP fluorogen, flow cytometry, cherry pick 1 (AID 588763); type: functional
Beta-2 adrenergic receptor, sequence (P07550 whole entry): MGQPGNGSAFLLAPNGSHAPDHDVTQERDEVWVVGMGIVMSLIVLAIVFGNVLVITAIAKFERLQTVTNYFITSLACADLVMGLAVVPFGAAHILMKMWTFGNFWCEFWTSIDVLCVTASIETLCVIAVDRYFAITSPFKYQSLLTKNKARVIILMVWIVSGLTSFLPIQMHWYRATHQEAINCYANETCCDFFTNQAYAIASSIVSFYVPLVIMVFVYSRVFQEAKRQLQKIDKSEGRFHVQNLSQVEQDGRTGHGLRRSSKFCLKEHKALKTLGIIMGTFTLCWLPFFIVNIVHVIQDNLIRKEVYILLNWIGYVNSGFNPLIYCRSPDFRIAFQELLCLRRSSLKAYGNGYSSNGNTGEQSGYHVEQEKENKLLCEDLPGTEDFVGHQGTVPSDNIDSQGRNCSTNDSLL

[7] = target: Eukaryotic translation initiation factor 4H (Homo sapiens, UniProt Q15056); experiment: human eIF4H binding inhibitors, primary screen, translation initiation inhibitor project, biochemical, uHTS, fluorescence polarization (AID 2012)
[8] = target: T2, Dual specificity protein phosphatase 3 (Homo sapiens, UniProt P51452); experiment: VHR1 phosphatase inhibitors, primary screen, biochemical, absorbance, uHTS (AID 1654)
T2 sequence (P51452 whole entry): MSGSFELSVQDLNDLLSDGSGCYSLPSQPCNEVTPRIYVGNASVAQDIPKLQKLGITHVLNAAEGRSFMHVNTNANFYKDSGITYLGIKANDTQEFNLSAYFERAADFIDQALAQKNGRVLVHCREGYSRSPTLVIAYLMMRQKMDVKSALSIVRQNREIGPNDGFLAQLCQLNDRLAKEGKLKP

[9] = target: T3, Voltage-gated N-type calcium channel alpha-1B subunit/Amyloid beta A4 precursor protein-binding family A member 1 (Homo sapiens, UniProt Q00975+Q02410); type: protein assay
T3 sequence (Q00975 whole entry): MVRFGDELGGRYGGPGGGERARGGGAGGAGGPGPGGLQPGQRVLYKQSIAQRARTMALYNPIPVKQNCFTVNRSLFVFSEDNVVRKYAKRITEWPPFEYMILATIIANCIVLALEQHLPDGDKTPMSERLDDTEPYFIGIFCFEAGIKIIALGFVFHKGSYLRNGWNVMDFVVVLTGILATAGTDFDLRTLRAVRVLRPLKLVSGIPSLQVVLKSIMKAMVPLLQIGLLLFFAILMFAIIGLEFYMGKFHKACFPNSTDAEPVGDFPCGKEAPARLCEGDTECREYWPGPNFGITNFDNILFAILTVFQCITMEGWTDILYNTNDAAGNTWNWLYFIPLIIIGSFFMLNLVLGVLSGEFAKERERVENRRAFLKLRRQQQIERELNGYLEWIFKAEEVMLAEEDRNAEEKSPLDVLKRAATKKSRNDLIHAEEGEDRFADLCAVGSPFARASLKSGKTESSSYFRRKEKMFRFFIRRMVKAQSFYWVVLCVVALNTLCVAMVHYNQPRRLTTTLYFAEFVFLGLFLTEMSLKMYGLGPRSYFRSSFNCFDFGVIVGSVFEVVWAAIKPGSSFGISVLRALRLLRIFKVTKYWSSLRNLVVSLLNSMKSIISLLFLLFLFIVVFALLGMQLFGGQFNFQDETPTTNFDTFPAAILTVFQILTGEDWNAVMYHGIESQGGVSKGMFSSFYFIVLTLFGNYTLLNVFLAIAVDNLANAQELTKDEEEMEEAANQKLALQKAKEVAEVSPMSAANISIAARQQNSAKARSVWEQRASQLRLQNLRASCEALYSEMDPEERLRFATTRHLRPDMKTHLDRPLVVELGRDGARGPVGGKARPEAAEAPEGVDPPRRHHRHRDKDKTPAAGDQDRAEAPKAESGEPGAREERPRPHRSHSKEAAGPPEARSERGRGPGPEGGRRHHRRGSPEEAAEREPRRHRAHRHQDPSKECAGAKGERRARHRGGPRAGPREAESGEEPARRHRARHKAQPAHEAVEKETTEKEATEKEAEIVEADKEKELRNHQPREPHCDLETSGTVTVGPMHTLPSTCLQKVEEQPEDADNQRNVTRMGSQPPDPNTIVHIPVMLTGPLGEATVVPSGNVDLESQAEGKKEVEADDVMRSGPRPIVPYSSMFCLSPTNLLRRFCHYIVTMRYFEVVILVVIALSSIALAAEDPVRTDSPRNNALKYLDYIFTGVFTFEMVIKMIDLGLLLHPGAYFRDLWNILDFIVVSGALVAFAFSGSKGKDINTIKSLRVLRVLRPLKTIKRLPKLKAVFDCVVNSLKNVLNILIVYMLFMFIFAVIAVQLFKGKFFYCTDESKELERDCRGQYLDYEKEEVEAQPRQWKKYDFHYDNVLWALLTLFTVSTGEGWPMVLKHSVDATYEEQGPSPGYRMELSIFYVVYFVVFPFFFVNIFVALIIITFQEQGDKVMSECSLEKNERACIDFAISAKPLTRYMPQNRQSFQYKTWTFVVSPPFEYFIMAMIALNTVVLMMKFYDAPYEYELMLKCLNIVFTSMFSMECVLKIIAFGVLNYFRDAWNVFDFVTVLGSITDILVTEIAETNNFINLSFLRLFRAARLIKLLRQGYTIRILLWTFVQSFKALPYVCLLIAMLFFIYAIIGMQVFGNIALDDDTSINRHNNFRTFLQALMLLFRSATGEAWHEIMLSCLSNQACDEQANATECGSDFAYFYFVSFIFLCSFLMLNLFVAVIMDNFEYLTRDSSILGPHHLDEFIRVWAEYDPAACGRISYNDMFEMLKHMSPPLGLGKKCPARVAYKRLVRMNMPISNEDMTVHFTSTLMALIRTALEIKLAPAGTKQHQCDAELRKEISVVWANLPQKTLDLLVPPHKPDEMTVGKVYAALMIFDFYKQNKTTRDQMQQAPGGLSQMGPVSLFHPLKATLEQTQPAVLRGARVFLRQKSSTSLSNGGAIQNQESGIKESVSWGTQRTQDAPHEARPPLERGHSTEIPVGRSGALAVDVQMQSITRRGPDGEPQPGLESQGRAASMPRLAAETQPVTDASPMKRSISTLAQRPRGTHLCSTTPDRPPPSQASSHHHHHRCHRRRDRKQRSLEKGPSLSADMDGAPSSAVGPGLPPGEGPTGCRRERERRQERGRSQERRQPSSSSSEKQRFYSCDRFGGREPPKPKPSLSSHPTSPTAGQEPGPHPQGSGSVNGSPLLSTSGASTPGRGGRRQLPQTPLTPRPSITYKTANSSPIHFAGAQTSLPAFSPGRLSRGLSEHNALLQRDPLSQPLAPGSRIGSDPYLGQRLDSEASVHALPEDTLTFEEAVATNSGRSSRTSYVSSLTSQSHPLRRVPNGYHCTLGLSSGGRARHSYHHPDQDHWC
T3 sequence (Q02410 whole entry): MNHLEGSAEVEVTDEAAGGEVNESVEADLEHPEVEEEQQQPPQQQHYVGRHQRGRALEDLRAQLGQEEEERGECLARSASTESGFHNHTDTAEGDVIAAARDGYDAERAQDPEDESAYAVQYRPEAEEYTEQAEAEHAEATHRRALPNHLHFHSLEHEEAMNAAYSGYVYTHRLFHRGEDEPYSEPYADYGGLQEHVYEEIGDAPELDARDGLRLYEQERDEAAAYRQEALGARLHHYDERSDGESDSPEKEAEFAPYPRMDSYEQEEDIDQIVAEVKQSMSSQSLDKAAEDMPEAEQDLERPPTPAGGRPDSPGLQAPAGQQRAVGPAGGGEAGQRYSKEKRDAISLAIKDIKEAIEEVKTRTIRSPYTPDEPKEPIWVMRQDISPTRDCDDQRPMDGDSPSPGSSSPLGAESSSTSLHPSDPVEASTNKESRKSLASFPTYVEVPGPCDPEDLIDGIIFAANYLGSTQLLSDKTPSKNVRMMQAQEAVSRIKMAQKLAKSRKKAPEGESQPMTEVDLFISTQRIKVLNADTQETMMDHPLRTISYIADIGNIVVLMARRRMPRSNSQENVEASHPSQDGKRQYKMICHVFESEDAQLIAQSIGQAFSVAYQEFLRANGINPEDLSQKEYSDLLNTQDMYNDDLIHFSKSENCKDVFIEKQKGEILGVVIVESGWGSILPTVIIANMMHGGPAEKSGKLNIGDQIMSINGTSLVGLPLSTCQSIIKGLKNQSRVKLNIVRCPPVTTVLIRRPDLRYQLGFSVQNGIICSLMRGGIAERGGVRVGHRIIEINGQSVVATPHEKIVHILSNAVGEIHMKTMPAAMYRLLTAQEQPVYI

Beta-galactosidase = Beta-galactosidase (Escherichia coli, UniProt Q8VNN2); experiment: PubChem AID 485352; type: functional
[10] = target: T3, Voltage-gated N-type calcium channel alpha-1B subunit/Amyloid beta A4 precursor protein-binding family A member 1; type: protein assay; remark: listed apart in the source
[11] = target: T4, Type-1 angiotensin II receptor (Homo sapiens, UniProt P30556); experiment: AT1 receptor antagonists, dose response, selectivity assay for APJ receptor antagonist project, cell-based, uHTS hits (AID 463214); type: functional;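 also: antagonist potency against angiotensin II stimulated AT1 response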
T4 sequence (P30556 whole entry): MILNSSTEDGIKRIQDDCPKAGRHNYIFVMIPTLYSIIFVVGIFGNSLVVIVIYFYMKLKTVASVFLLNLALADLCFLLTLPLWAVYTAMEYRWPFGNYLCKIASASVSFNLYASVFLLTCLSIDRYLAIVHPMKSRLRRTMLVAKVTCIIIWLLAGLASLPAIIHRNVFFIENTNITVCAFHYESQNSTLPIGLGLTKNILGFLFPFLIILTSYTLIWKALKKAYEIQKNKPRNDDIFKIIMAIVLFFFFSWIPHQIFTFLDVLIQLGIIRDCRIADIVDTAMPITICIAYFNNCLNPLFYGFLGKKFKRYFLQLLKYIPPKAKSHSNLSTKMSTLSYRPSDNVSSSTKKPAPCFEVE

[12] = target: T2, Dual specificity protein phosphatase 3; experiment: VHR1 phosphatase inhibitors, biochemical (AID 1878)
[13] = target: T5, Dual specificity protein phosphatase 6 (Rattus norvegicus, UniProt Q64346); experiment: MKP-3 phosphatase inhibitors, primary screen, biochemical, rat enzyme, in vitro (AID 425)
T5 sequence (Q64346 whole entry): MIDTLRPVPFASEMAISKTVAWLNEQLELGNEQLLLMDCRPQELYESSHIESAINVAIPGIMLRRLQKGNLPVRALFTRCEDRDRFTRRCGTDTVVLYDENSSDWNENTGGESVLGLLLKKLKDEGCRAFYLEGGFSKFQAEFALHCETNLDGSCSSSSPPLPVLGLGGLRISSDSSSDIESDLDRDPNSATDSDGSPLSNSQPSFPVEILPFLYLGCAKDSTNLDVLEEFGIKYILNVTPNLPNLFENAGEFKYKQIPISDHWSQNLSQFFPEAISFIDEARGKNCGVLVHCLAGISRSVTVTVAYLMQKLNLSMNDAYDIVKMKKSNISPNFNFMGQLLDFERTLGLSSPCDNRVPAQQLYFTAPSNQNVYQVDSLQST

[14] = target: Polyadenylate-binding protein 1 (Homo sapiens, UniProt P11940); experiment: PABP poly(A) RNA binding inhibitors, primary screen, biochemical, fluorescence polarization, uHTS (AID 2014)
Polyadenylate-binding protein 1, sequence (P11940 whole entry): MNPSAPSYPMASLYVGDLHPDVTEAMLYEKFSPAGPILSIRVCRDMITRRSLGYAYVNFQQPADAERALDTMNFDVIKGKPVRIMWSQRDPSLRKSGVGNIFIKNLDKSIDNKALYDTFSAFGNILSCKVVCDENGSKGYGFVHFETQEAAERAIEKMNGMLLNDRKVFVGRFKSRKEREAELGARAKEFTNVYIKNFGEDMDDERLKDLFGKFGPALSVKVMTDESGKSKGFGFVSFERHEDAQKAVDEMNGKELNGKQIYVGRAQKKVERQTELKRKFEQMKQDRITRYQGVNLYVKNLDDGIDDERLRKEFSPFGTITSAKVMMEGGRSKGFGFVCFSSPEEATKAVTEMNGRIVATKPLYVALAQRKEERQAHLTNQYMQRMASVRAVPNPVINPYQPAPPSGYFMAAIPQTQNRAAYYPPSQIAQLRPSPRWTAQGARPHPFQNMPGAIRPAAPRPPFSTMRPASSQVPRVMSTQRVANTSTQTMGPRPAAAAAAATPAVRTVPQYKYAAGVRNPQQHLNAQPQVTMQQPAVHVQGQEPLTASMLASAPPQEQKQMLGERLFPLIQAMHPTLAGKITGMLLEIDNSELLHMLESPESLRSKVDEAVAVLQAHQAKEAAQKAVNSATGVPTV

[15] = target: Eukaryotic translation initiation factor 4E (Mus musculus, UniProt P63073); experiment: eIF4E–eIF4G protein interaction inhibitors, dose response, biochemical, TR-FRET (AID 855); type: functional;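 also: potency for disrupting eIF4E binding to eIF4GI seen as loss of FRET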
Eukaryotic translation initiation factor 4E, sequence (P63073 whole entry): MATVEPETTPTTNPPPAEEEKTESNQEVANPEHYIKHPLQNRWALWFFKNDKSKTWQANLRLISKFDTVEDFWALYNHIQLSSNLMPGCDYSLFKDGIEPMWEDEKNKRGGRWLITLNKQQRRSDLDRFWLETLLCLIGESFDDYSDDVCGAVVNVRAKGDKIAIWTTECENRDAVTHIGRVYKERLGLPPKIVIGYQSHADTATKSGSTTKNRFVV

[16] = target: T6, Apoptotic protease-activating factor 1 (Homo sapiens, UniProt O14727); experiment: activation of Apaf-1 mediated apoptosis – fluorescent, uHTS hits, dose response (AID 588554); type: functional
T6 sequence (O14727 whole entry): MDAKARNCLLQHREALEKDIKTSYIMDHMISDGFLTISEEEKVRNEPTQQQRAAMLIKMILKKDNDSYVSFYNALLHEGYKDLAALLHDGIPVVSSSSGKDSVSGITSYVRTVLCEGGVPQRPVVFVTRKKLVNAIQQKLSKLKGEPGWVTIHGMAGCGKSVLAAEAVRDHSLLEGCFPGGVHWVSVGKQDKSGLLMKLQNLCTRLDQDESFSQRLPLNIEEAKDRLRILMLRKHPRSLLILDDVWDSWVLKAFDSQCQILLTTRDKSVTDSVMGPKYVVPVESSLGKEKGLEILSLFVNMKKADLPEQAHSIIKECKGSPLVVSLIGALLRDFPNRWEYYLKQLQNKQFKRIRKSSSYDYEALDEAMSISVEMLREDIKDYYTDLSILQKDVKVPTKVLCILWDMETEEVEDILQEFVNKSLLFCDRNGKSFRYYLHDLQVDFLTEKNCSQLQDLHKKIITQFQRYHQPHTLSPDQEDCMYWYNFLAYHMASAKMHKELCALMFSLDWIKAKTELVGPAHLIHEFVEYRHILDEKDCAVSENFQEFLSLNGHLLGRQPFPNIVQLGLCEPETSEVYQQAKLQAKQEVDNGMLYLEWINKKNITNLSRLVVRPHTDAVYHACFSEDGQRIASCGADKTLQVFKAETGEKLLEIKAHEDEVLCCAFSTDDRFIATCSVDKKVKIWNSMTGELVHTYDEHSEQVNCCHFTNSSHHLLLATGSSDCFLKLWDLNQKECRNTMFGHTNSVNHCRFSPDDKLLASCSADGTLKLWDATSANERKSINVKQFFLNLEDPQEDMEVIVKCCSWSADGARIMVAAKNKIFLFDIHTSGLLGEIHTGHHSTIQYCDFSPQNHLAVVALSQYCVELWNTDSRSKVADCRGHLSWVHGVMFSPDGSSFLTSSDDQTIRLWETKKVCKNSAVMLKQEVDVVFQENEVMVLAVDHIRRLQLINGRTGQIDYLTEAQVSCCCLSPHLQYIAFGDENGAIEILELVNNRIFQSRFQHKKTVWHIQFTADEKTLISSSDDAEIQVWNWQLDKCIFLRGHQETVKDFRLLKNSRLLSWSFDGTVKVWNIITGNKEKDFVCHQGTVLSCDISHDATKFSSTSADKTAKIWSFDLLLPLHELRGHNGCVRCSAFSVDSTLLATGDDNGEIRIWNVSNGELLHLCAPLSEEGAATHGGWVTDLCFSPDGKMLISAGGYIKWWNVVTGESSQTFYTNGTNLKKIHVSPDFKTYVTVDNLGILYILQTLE

Jurkat = experiment: SAR Analysis of small molecule inhibitors of […] specific antigen receptor-induced NF-kB activation in a Jurkat cell line using a luminescence assay - Set 3. [Related pubchem assays (depositor defined):AID435022, AID435025, AID465]; type: functional, cell-based; details: Homo sapiens
HEK293 [17] = experiment: SAR Analysis of small molecule inhibitors of B-cell specific antigen receptor-induced NF-kB activation in a HEK-293T cell line using a luminescence assay - Set 2. [Related pubchem assays (depositor defined):AID435022, AID435025, AID489021]; type: functional, cell-based; details: Homo sapiens
HEK293 [18] = experiment: cytotoxicity in HEK293T NF-kB-Luc cells, SAR follow-up, cytotoxicity control for NF-kB activator project, cell-based, resazurin fluorescence (AID 493251); type: functional; details: Homo sapiens

`Cc1ccc(C(=O)N2CCN(c3ccnc4cc(Cl)ccc34)CC2)cc1` was tested, and the AC50 (Candida albicans [1]) was 1.33 µM (active), the AC50 (Candida albicans [2]) was 1.78 µM (active) and the AC50 (Candida albicans [3]) was 7.07 µM (active). For the same compound, the AC50 (Candida albicans [4]) was 31.8 µM (active).

For `Cc1ccc(S(=O)(=O)N2CCOCC2)cc1NC(=O)CSc1nnc2cc(C)c3ccccc3n12`, the EC50 [5] was 17.4 µM (inactive), the IC50 (Hexokinase-1) was 50.3 µM (inactive) and the IC50 (Hexokinase HKDC1) was 43.2 µM (inactive).

With `CCCCN(C(=O)c1ccc(NC(=O)C(C)C)cc1)c1ccccc1` the EC50 [6] was 0.049 µM (active).

`COc1cc(/C=C2\SC(=O)N(c3cccc(Cl)c3)C2=O)cc([N+](=O)[O-])c1O` was tested, and the IC50 [7] was 4.99 µM (active), the IC50 [8] was 3.03 µM (active) and the IC50 [9] was 3.5 µM (active). For the same compound, the EC50 (Beta-galactosidase) was 30.8 µM (active), the IC50 [10] was > 50 µM (inactive) and the IC50 [11] was 27.3 µM (not active). For the same compound, the IC50 [12] was 2.21 µM (active), the IC50 [13] was > 158 µM (not active) and the IC50 [14] was > 100 µM (inactive). For the same compound, the IC50 [15] was 21.9 µM (active) and the EC50 [16] was 5.8 µM (active).

For `COc1ccccc1NC(=O)CCc1nc(-c2ccc(C(C)(C)C)cc2)no1`, the IC50 (Jurkat) was 0.665 µM (active), the IC50 (HEK293 [17]) was 0.44 µM (active) and the IC50 (HEK293 [18]) was 56 µM (inactive).
